What was measured:
A1/Bfl-1 = biological target: T1, A1/Bfl-1 (Homo sapiens, UniProt Q16548); experiment: FP-based competitive binding assay using fluorescent labeled Bid BH3 peptide; conditions: for Ki: read-out: Ki ± SD, A1/Bfl-1, competitive FP assay, Bid BH3 peptide
T1 sequence (Q16548 1-175): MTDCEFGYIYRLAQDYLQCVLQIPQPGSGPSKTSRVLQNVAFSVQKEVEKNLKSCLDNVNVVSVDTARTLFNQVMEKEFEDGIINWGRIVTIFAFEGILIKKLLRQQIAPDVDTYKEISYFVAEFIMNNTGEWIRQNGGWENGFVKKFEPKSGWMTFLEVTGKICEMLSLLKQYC

Bcl-w = biological target: T2, Bcl-w (Homo sapiens, UniProt Q92843); experiment: as above; conditions: for Ki: read-out: Ki ± SD, Bcl-w, competitive FP assay, Bid BH3 peptide
T2 sequence (Q92843 1-193): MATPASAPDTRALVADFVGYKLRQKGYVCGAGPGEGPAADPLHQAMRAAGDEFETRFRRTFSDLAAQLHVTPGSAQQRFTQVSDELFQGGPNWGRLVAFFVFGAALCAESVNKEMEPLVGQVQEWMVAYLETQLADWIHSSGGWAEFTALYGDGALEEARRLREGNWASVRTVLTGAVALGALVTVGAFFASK

cellular Mcl-1 = cellular Mcl-1 (Homo sapiens, UniProt Q07820); experiment: Biotin-labeled Noxa BH3 peptide streptavidin pull-down from 2LMP cell lysate; format: binding
Sequence of cellular Mcl-1 (Q07820 whole entry): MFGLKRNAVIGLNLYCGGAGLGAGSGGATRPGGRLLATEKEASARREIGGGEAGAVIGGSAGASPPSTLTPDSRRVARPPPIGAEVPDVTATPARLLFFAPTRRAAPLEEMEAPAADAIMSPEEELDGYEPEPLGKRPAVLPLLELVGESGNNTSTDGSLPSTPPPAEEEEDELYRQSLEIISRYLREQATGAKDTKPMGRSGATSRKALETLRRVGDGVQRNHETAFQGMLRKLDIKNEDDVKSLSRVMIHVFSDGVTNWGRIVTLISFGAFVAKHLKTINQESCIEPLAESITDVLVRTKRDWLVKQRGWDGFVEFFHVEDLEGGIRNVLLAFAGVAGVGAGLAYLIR

Mcl-1 [1] = biological target: T3, Mcl-1 (Homo sapiens, UniProt Q07820); conditions: cited from earlier work
T3 sequence (Q07820 whole entry): as above

Mcl-1 [2] = biological target: T3, Mcl-1; experiment: FP-based competitive binding assay using fluorescent labeled Bid BH3 peptide
Bcl-2 [3] = biological target: T4, Bcl-2 (Homo sapiens, UniProt P10415); experiment: as above
T4 sequence (P10415 whole entry): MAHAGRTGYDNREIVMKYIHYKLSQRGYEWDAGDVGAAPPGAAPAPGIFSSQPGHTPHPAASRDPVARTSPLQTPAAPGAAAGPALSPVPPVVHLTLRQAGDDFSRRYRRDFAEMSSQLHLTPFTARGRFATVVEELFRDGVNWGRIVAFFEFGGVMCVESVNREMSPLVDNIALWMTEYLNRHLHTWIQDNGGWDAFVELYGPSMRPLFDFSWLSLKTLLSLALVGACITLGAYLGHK

Bcl-xL [4] = biological target: T5, Bcl-xL (Homo sapiens, UniProt Q07817); experiment: as above
T5 sequence (Q07817 whole entry): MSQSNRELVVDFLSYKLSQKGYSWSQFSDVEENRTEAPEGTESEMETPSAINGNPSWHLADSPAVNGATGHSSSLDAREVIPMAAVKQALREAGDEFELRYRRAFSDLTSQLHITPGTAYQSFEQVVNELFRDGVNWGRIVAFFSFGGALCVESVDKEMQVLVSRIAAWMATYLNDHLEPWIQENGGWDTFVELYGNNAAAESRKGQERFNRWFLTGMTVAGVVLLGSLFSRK

Mcl-1 [5] = biological target: T3, Mcl-1; format: binding
Panc-1 cells [6] = experiment: Induction of apoptosis, Annexin V/PI double staining flow cytometry; format: cell-based, human
[7] = Metabolic stability in pooled mice liver microsomes; format: in vitro ADME
BxPC-3 xenograft = BxPC-3 xenograft efficacy in SCID mice; format: in vivo; conditions: 60 mg/kg i.v.; for Tumor growth inhibition in comparison with controls: 5 days a week for two weeks
Bcl-2 [8] = biological target: T4, Bcl-2; conditions: solution competitive SPR, immobilized Bid peptide
Bcl-xL [9] = biological target: T5, Bcl-xL; conditions: solution competitive SPR, immobilized Bid peptide
BxPC-3 = conditions: read-out: IC50 cell growth inhibition, BxPC-3; 4 days treatment
Panc-1 = conditions: read-out: IC50 cell growth inhibition, Panc-1; 4 days treatment
MiaPaCa-2 = conditions: read-out: IC50 cell growth inhibition, MiaPaCa-2; 4 days treatment
AsPC-1 = conditions: read-out: IC50 cell growth inhibition, AsPC-1; 4 days treatment
Capan-2 = conditions: read-out: IC50 cell growth inhibition, Capan-2; 4 days treatment
AsPC-1 cells = conditions: AsPC-1, highest tested concentration 20 μM
Panc-1 cells [10] = conditions: Panc-1, 24 h treatment
BxPC-3 cells [11] = conditions: BxPC-3, 24 h, 3 and 10 μM, densitometry
[12] = biological target: Mcl-1/Bax and Mcl-1/Bak in BxPC-3 cells (Homo sapiens, UniProt Q07820); conditions: BxPC-3, 4 μM, 24 h
Sequence of Mcl-1/Bax and Mcl-1/Bak in BxPC-3 cells (Q07820 whole entry): as the sequence (Q07820 whole entry) above

[13] = tested on: wild type (WT) murine embryonic fibroblasts (MEF); conditions: 10 μM, 24 h
[14] = tested on: Bax/Bak-deficient (DKO) MEFs; conditions: 10 μM, 24 h
Panc-1 cells [15] = conditions: Panc-1, 24 h, anti-Bax 6A7
BxPC-3 cells [16] = conditions: BxPC-3, 24 h, anti-Bax 6A7
SCID mice = conditions: mouse, in vivo
BxPC-3 cells [17] = experiment: Cell growth inhibition; conditions: BxPC-3 transfected with control siRNA, 3.5 μM, 72 h
BxPC-3 cells [18] = experiment: Induction of apoptosis; conditions: BxPC-3 transfected with control siRNA, 3.5 μM, 72 h

SMILES: O=C(O)CSc1cc(NS(=O)(=O)c2cccs2)c2ccccc2c1O [UMI-59]
- Ki (A1/Bfl-1): 6.14 ± 1 µM
- Ki (Bcl-w): 37.5 ± 7.96 µM
- Disruption of BL-Noxa / cellular Mcl-1 interaction (cellular Mcl-1): effectively disrupt the interactions between BL-Noxa and cellular Mcl-1 in a dose dependent manner

SMILES: CN(C)CC[C@H](CSc1ccccc1)Nc1ccc(S(=O)(=O)NC(=O)c2ccc(N3CCN(Cc4ccccc4-c4ccc(Cl)cc4)CC3)cc2)cc1[N+](=O)[O-] [ABT-737]
- Binding to Mcl-1 (Mcl-1 [1]): fails to bind

SMILES: O=C(O)CSc1cc(NS(=O)(=O)c2ccc(Br)cc2)c2ccccc2c1O [UMI-77]
- Potency for binding to Mcl-1 relative to 1 (UMI-59) (Mcl-1 [2]; FP Ki ratio): three times higher potency
- Ki (Mcl-1 [2]; read-out: Ki ± SD, Mcl-1, competitive FP assay, Bid BH3 peptide): 0.49 ± 0.06 µM
- Fold lower affinity to A1/Bfl-1 than to Mcl-1 (A1/Bfl-1; FP Ki ratio): 11 fold
- Ki (A1/Bfl-1): 5.33 ± 1 µM
- Fold reduced binding to Bcl-2 vs Mcl-1 (Bcl-2 [3]; FP Ki ratio): more than 50 fold
- Ki (Bcl-2 [3]; read-out: Ki ± SD, Bcl-2, competitive FP assay, Bid BH3 peptide): 23.8 ± 1.81 µM
- Fold reduced binding to Bcl-xL vs Mcl-1 (Bcl-xL [4]; FP Ki ratio): more than 50 fold
- Ki (Bcl-xL [4]; read-out: Ki ± SD, Bcl-xL, competitive FP assay, Bid BH3 peptide): 33 ± 4.33 µM
- Fold decreased binding to Bcl-w vs Mcl-1 (Bcl-w; FP Ki ratio): 17 fold
- Ki (Bcl-w): 8.19 ± 1.91 µM
- Fold improved binding affinity to Mcl-1 in comparison with UMI-59 (SPR) (Mcl-1 [5]; SPR IC50 ratio): 4 fold
- IC50 (Mcl-1 [5]; read-out: IC50, Mcl-1 (SPR), solution competitive SPR, immobilized Bid peptide): 0.31 µM
- Concentration from which BL-Noxa / cellular Mcl-1 interaction is blocked (cellular Mcl-1): ≥ 10 µM
- Disruption of BL-Noxa / cellular Mcl-1 interaction (cellular Mcl-1): effectively disrupt the interactions between BL-Noxa and cellular Mcl-1 in a dose dependent manner
- Early apoptotic cells (Panc-1 cells [6]; Panc-1, 5 μM, 24 hours): 15%
- Early apoptotic cells (Panc-1 cells [6]; Panc-1, 5 μM, 48 hours): 21%
- Early apoptotic cells (Panc-1 cells [6]; Panc-1, 10 μM, 24 hours): 21%
- Early apoptotic cells (Panc-1 cells [6]; Panc-1, 10 μM, 48 hours): 49%
- Microsomal half-life (T1/2) [7]: 45 min
- Positive apoptotic cells of tumor sections (TUNEL) vs control group (BxPC-3 xenograft): significantly increased
- Survivin in tumor tissue lysates (western blot) (BxPC-3 xenograft): significant decrease of survivin
- Tumor growth inhibition in comparison with controls (BxPC-3 xenograft; day 19 (p < 0.0001)): 65%
- Tumor growth inhibition in comparison with controls (BxPC-3 xenograft; day 22 (p < 0.003)): 56%
- Fold decreased binding to Bcl-2 vs Mcl-1 (SPR) (Bcl-2 [8]): more than 30 fold
- Fold decreased binding to Bcl-xL vs Mcl-1 (SPR) (Bcl-xL [9]): more than 30 fold
- IC50 (BxPC-3): 3.4 µM
- IC50 (Panc-1): 4.4 µM
- IC50 (MiaPaCa-2): 12.5 µM
- IC50 (AsPC-1): 16.1 µM
- IC50 (Capan-2): 5.5 µM
- Induction of early apoptosis (AsPC-1 cells): 8%
- Concentration from which cytochrome c and Smac are released from mitochondria (Panc-1 cells [10]): ≥ 10 µM
- Cleaved caspase-3 versus DMSO control (BxPC-3 cells [11]): statistically significant cleaved caspase-3 versus DMSO control
- Endogenous protein-protein interactions of Bax and Bak with Mcl-1 [12]: inhibition of the endogenous protein-protein interactions of Bax and Bak with Mcl-1
- Apoptosis in MEF WT cells [13]: more than 60%
- Apoptotic cells in MEF DKO cells [14]: 16%
- Concentration from which activated Bax is substantially increased (Panc-1 cells [15]): ≥ 5 µM
- Concentration from which activated Bax is substantially increased (BxPC-3 cells [16]): ≥ 5 µM
- Histopathology (H&E) of kidney, liver and pancreas (SCID mice): did not cause damage
- Cell growth inhibition (BxPC-3 cells [17]): 50%
- Induction of apoptosis (BxPC-3 cells [18]): 7 fold

— publication PMC4174574 (Molecular cancer therapeutics, 2013)
